Laboratory results from ChEMBL document CHEMBL4177696, “Identification of a diverse synthetic abietane diterpenoid library and insight into the structure-activity relationships for antibacterial activity” (Bioorg Med Chem Lett, 2017).
Values after ≈ are worked out from the molar mass of the structure shown.

Assays:
Staphylococcus aureus = assay: Antibacterial activity against Staphylococcus aureus measured after 24 hrs; assay type: functional
Bacillus subtilis = assay: Antibacterial activity against Bacillus subtilis measured after 24 hrs; assay type: functional
Escherichia coli = assay: Antibacterial activity against Escherichia coli measured after 24 hrs; assay type: functional
Pseudomonas fluorescens = assay: Antibacterial activity against Pseudomonas fluorescens measured after 24 hrs; assay type: functional
[1] = Cytotoxicity against HFF measured after 72 hrs by MTT assay; assay type: cell-based; conditions: human, HFF cells
[2] = Cytotoxicity against human HL-7702 cells measured after 72 hrs by MTT assay; assay type: cell-based; conditions: HL-7702 (L02) cells

| MIC (Staphylococcus aureus) [µg/mL] | MIC (Bacillus subtilis) [µg/mL] | MIC (Escherichia coli) [µg/mL] | MIC (Pseudomonas fluorescens) [µg/mL] | Compound | CC50 at 72 h [1] [µg/mL] | CC50 at 72 h [2] [µg/mL] |
| --- | --- | --- | --- | --- | --- | --- |
| 1.6 (≈ 5.06 µM) | 0.8 (≈ 2.53 µM) | 1.6 (≈ 5.06 µM) | 1.6 (≈ 5.06 µM) | COc1cccc2c1CC[C@H]1[C@H]3COC(=O)[C@@]3(O)C(=O)C[C@]21C | > 50 | 47.5 (≈ 150 µM) |
| 3.1 (≈ 12.1 µM) | 6.3 (≈ 24.6 µM) | 6.3 (≈ 24.6 µM) | 3.1 (≈ 12.1 µM) | C=C1C(=O)CC[C@]2(C)c3cccc(OC)c3CC[C@@H]12 | 9.1 (≈ 35.5 µM) | 9.3 (≈ 36.3 µM) |
| 6.3 (≈ 10 µM) | 12.5 (≈ 19.8 µM) | 12.5 (≈ 19.8 µM) | 25 (≈ 39.7 µM) | COC(=O)[C@]1(C)CCC[C@]2(C)c3ccc(C(C)C)c(NC(=O)Cn4cc(-c5cccc(NC(=O)OC(C)(C)C)c5)nn4)c3CC[C@@H]12 |  |  |
| 25 (≈ 44.7 µM) | 50 (≈ 89.3 µM) | 75 (≈ 134 µM) | 12.5 (≈ 22.3 µM) | COC(=O)[C@]1(C)CCC[C@]2(C)c3ccc(C(C)C)c(NC(=O)Cn4cc(-c5ccc([N+](=O)[O-])cc5)nn4)c3CC[C@@H]12 |  |  |
| 0.8 (≈ 1.55 µM) | 6.3 (≈ 12.2 µM) | 25 (≈ 48.5 µM) | 3.1 (≈ 6.01 µM) | COC(=O)[C@]1(C)CCC[C@]2(C)c3ccc(C(C)C)c(NC(=O)Cn4cc(-c5ccncc5)nn4)c3CC[C@@H]12 |  |  |
| 75 (≈ 133 µM) | 50 (≈ 88.5 µM) | 25 (≈ 44.3 µM) | 25 (≈ 44.3 µM) | COC(=O)[C@]1(C)CCC[C@]2(C)c3ccc(C(C)C)c(NC(=O)Cn4cc(-c5ccc6ccccc6c5)nn4)c3CC[C@@H]12 |  |  |
| 25 (≈ 44.7 µM) | 50 (≈ 89.3 µM) | 75 (≈ 134 µM) | 50 (≈ 89.3 µM) | COC(=O)[C@]1(C)CCC[C@]2(C)c3ccc(C(C)C)c(NC(=O)Cn4cc(-c5cccc([N+](=O)[O-])c5)nn4)c3CC[C@@H]12 |  |  |
| 25 (≈ 48.5 µM) | 12.5 (≈ 24.2 µM) | 12.5 (≈ 24.2 µM) | 12.5 (≈ 24.2 µM) | COC(=O)[C@]1(C)CCC[C@]2(C)c3ccc(C(C)C)c(NC(=O)Cn4cc(-c5ccccn5)nn4)c3CC[C@@H]12 |  |  |
| 25 (≈ 43.5 µM) | 100 (≈ 174 µM) | 75 (≈ 130 µM) | 75 (≈ 130 µM) | COC(=O)[C@]1(C)CCC[C@]2(C)c3ccc(C(C)C)c(NC(=O)Cn4cc(-c5cc(OC)cc(OC)c5)nn4)c3CC[C@@H]12 |  |  |
| 25 (≈ 41.8 µM) | 50 (≈ 83.5 µM) | 50 (≈ 83.5 µM) | 75 (≈ 125 µM) | COC(=O)[C@]1(C)CCC[C@]2(C)c3ccc(C(C)C)c(NC(=O)Cn4cc(-c5ccc(OC(F)(F)F)cc5)nn4)c3CC[C@@H]12 |  |  |
| 12.5 (≈ 24 µM) | 6.3 (≈ 12.1 µM) | 50 (≈ 96 µM) | 6.3 (≈ 12.1 µM) | COC(=O)[C@]1(C)CCC[C@]2(C)c3ccc(C(C)C)c(NC(=O)Cn4cc(-c5cccs5)nn4)c3CC[C@@H]12 |  |  |
| 50 (≈ 84.6 µM) | 75 (≈ 127 µM) | 25 (≈ 42.3 µM) | 50 (≈ 84.6 µM) | COC(=O)[C@]1(C)CCC[C@]2(C)c3ccc(C(C)C)c(NC(=O)Cn4cc(-c5ccc(-c6ccccc6)cc5)nn4)c3CC[C@@H]12 |  |  |
| 25 (≈ 46.3 µM) | 12.5 (≈ 23.2 µM) | 12.5 (≈ 23.2 µM) | 25 (≈ 46.3 µM) | COC(=O)[C@]1(C)CCC[C@]2(C)c3ccc(C(C)C)c(NC(=O)Cn4cc(-c5ccc(C#N)cc5)nn4)c3CC[C@@H]12 |  |  |
| 100 (≈ 166 µM) | 75 (≈ 125 µM) | 75 (≈ 125 µM) | 75 (≈ 125 µM) | CCCCCOc1ccc(-c2cn(CC(=O)Nc3c(C(C)C)ccc4c3CC[C@H]3[C@](C)(C(=O)OC)CCC[C@]43C)nn2)cc1 |  |  |
| 25 (≈ 42.1 µM) | 25 (≈ 42.1 µM) | 12.5 (≈ 21.1 µM) | 12.5 (≈ 21.1 µM) | COC(=O)[C@]1(C)CCC[C@]2(C)c3ccc(C(C)C)c(NC(=O)Cn4cc(-c5cccc(Br)c5)nn4)c3CC[C@@H]12 |  |  |
| 12.5 (≈ 21.8 µM) | 12.5 (≈ 21.8 µM) | 6.3 (≈ 11 µM) | 25 (≈ 43.7 µM) | COC(=O)c1ccc(-c2cn(CC(=O)Nc3c(C(C)C)ccc4c3CC[C@H]3[C@](C)(C(=O)OC)CCC[C@]43C)nn2)cc1 |  |  |
| 6.3 (≈ 13.6 µM) | 0.8 (≈ 1.72 µM) | 6.3 (≈ 13.6 µM) | 1.6 (≈ 3.44 µM) | CCOCOC[C@]12CCC(=C(SC)SC)C(=O)[C@@H]1CCc1c2ccc(C(C)C)c1OC | 11.4 (≈ 24.5 µM) | 13.2 (≈ 28.4 µM) |
| 50 (≈ 80.5 µM) | 50 (≈ 80.5 µM) | 75 (≈ 121 µM) | 75 (≈ 121 µM) | COC(=O)[C@]1(C)CCC[C@]2(C)c3ccc(C(C)C)c(NC(=O)Cn4cc(-c5ccc(OCc6ccccc6)cc5)nn4)c3CC[C@@H]12 |  |  |
| 12.5 (≈ 21.3 µM) | 25 (≈ 42.6 µM) | 6.3 (≈ 10.7 µM) | 12.5 (≈ 21.3 µM) | COC(=O)[C@]1(C)CCC[C@]2(C)c3ccc(C(C)C)c(NC(=O)Cn4cc(-c5nc(Cl)nc(Cl)n5)nn4)c3CC[C@@H]12 |  |  |
| 50 (≈ 91.1 µM) | 12.5 (≈ 22.8 µM) | 12.5 (≈ 22.8 µM) | 25 (≈ 45.5 µM) | COC(=O)[C@]1(C)CCC[C@]2(C)c3ccc(C(C)C)c(NC(=O)Cn4cc(-c5cccc(Cl)c5)nn4)c3CC[C@@H]12 |  |  |
| 3.1 (≈ 8.6 µM) | 6.3 (≈ 17.5 µM) | 3.1 (≈ 8.6 µM) | 3.1 (≈ 8.6 µM) | CCOCO[C@]12CCC[C@]3(CO1)c1ccc(C(C)C)c(OC)c1CC[C@@H]23 | 8.2 (≈ 22.7 µM) | 5.4 (≈ 15 µM) |
| 25 (≈ 42.9 µM) | 12.5 (≈ 21.5 µM) | 12.5 (≈ 21.5 µM) | 25 (≈ 42.9 µM) | COC(=O)[C@]1(C)CCC[C@]2(C)c3ccc(C(C)C)c(NC(=O)Cn4cc(-c5ccc(C(F)(F)F)cc5)nn4)c3CC[C@@H]12 |  |  |
| 25 (≈ 42.8 µM) | 25 (≈ 42.8 µM) | 25 (≈ 42.8 µM) | 50 (≈ 85.7 µM) | COC(=O)[C@]1(C)CCC[C@]2(C)c3ccc(C(C)C)c(NC(=O)Cn4cc(-c5cc(Cl)cc(Cl)c5)nn4)c3CC[C@@H]12 |  |  |
| 25 (≈ 42.1 µM) | 12.5 (≈ 21.1 µM) | 25 (≈ 42.1 µM) | 6.3 (≈ 10.6 µM) | COC(=O)[C@]1(C)CCC[C@]2(C)c3ccc(C(C)C)c(NC(=O)Cn4cc(-c5ccc(Br)cc5)nn4)c3CC[C@@H]12 |  |  |
| 75 (≈ 231 µM) | 100 (≈ 308 µM) | 75 (≈ 231 µM) | 100 (≈ 308 µM) | COc1c(C(C)C)ccc2c1CC=C1C3=C(CCC12C)C(=O)OC3 (single isomer, unassigned) |  |  |
| 25 (≈ 82.7 µM) | 50 (≈ 165 µM) | 50 (≈ 165 µM) | 25 (≈ 82.7 µM) | CC(C)C1=CC2=CC[C@@H]3[C@](C)(CCC[C@@]3(C)C(=O)O)[C@H]2CC1 [ABIETIC ACID] |  |  |
| 0.8 | 0.8 | 1.6 | 0.8 | NCC[C@H](O)C(=O)N[C@@H]1C[C@H](N)[C@@H](O[C@H]2O[C@H](CN)[C@@H](O)[C@H](O)[C@H]2O)[C@H](O)[C@H]1O[C@H]1O[C@H](CO)[C@@H](O)[C@H](N)[C@H]1O.O=S(=O)(O)O.O=S(=O)(O)O [AMIKACIN SULFATE] |  |  |
| 25 (≈ 83.2 µM) | 50 (≈ 166 µM) | 75 (≈ 250 µM) | 50 (≈ 166 µM) | CC(C)c1ccc2c(c1)CC[C@H]1[C@](C)(C(=O)O)CCC[C@]21C [DEHYDROABIETIC ACID] |  |  |
| 50 (≈ 158 µM) | 75 (≈ 237 µM) | 75 (≈ 237 µM) | 50 (≈ 158 µM) | COC(=O)[C@]1(C)CCC[C@@]2(C)[C@H]1CC=C1C=C(C(C)C)CC[C@@H]12 [METHYL ABIETATE] |  |  |
| 75 (≈ 238 µM) | 100 (≈ 318 µM) | 100 (≈ 318 µM) | 100 (≈ 318 µM) | COC(=O)[C@]1(C)CCC[C@]2(C)c3ccc(C(C)C)cc3CC[C@@H]12 [METHYL DEHYDROABIETATE] |  |  |

| Compound | MIC (Staphylococcus aureus) [µg/mL] | MIC (Bacillus subtilis) [µg/mL] | MIC (Escherichia coli) [µg/mL] | MIC (Pseudomonas fluorescens) [µg/mL] | CC50 at 72 h [1] [µg/mL] | CC50 at 72 h [2] [µg/mL] |
| --- | --- | --- | --- | --- | --- | --- |
| CCn1cc(C(=O)O)c(=O)c2cc(F)c(N3CCNCC3)cc21 [NORFLOXACIN] | 1.6 (≈ 5.01 µM) | 1.6 (≈ 5.01 µM) | 3.1 (≈ 9.71 µM) | 1.6 (≈ 5.01 µM) |  |  |
| CC(C)c1ccc2c(c1O)CC[C@H]1C3=C(CC[C@]21C)C(=O)OC3 [TRIPTOPHENOLIDE] | 75 (≈ 240 µM) | 50 (≈ 160 µM) | 100 (≈ 320 µM) | 75 (≈ 240 µM) |  |  |
